The values that follow are results of earlier work, collected in patent US20230010484A1, “METHOD FOR THE DECOLORIZATION OF KERATIN MATERIAL THAT HAS BEEN DYED USING A PIGMENT” (Henkel AG & Co. KGaA, priority 2019, published 2023).

The conditions of this data set: 25° C.

Consider `O=S(=O)([O-])c1ccc(N=Nc2c(O)ccc3ccccc23)cc1.[Na+]` [Acid Orange 7, sodium salt of 4-[(2-hydroxy-1-naphthyl)azo]benzene sulphonate], for which the solubility in water result is on record as “more than 7 g/L”. Take `Nc1cc(S(=O)(=O)[O-])cc2cc(S(=O)(=O)[O-])c(N=Nc3ccccc3)c(O)c12.[Na+].[Na+]` [Acid Red 33, dinatrium salt of 5-amino-4-hydroxy-3-(phenylazo)-naphthalene-2,7-disulphonate]: the solubility in water entry was “about 2.5 g/L”. Take `O=C([O-])c1c(Cl)c(Cl)c(Cl)c(Cl)c1-c1c2c(Br)cc(=O)c(Br)c-2oc2c(Br)c(O)cc(Br)c12.O=C([O-])c1c(Cl)c(Cl)c(Cl)c(Cl)c1-c1c2c(Br)cc(=O)c(Br)c-2oc2c(Br)c(O)cc(Br)c12.[Na+].[Na+]` [Acid Red 92, disodium salt of 3,4,5,6-tetrachloro-2-(1,4,5,8-tetrabromo-6-hydroxy-3-oxoxanthen-9-yl)benzoic acid]: the solubility in water entry is on record as “greater than 10 g/L”. `O=C([O-])C1=NN(c2ccc(S(=O)(=O)[O-])cc2)C(=O)C1N=Nc1ccc(S(=O)(=O)[O-])cc1.[Na+].[Na+].[Na+]` (stereo not shown) [Acid Yellow 23, trisodium salt of 4,5-dihydro-5-oxo-1-(4-sulfophenyl)-4-((4-sulfophenyl)azo)-1H-pyrazole-3-carboxylic acid]: the “solubility in water (in words)” value is on record as “highly soluble”.
